The experiment addresses T1, human 11βHSD1 enzyme (Homo sapiens, UniProt P28845).
T1 construct: stably transfected with a construct containing fill-length human 11βHSD1 enzyme (in pCMVHyg); expressed in transfected cells; host or cells: HeLa cells (human cervical carcinoma) stably carrying the GRE4-β-galactosidase reporter and 11βHSD1 in pCMVHyg
Briefly: HeLa GRE4-βGal/11βHSD1 cell reporter assay (cortisone to cortisol conversion, β-galactosidase readout). Particulars: HeLa GRE4-βGal/11βHSD1 cells, cortisone 1 μM, overnight incubation. The format is cell-based. The text has this:
HeLa cells (human cervical carcinoma derived cells) were stably transfected with a construct containing four copies of the glucocorticoid response element (GRE) linked to a beta-galactosidase reporter gene (3 kb lac Z gene derived from pSV-B-galactosidase). These cells were then further stably transfected with a construct containing fill-length human 11βHSD1 enzyme (in pCMVHyg) to create GRE4-βGal/11βHSD1 cells. The principal of the assay is as follows. Cortisone is freely taken up by the cells and is converted to cortisol by 11βHSD1 oxo-reductase activity and cortisol (but not cortisone) binds to and activates the glucocorticoid receptor. Activated glucocorticoid receptor then binds to the GRE and initiates transcription and translation of β-galactosidase. Enzyme activity can then be assayed with high sensitivity by colourimetric assay.
Cells were routinely cultured in DMEM (Invitrogen, Paisley, Renfrewshire, UK) containing 10% foetal calf serum (LabTech), 1% glutamine (Invitrogen), 1% penicillin & streptomycin (Invitrogen), 0.5 mg/ml G418 (Invitrogen) & 0.5 mg/ml hygromycin (Boehringer). Assay media was phenol red free-DMEM containing 1% glutamine, 1% penicillin & streptomycin.
Compounds (1 mM) to be tested were dissolved in dimethyl sulphoxide (DMSO) and serially diluted into assay media containing […]. […]
A cocktail (25 μl) consisting of 10× Z-buffer (600 mM Na2HPO4, 400 mM NaH2PO4.2H2O, 100 mM KCl, 10 mM MgSO4.7H2O, 500 mM, β-mercaptoethanol, pH 7.0), SDS (0.2%), chlorophenol red-β-D-galactopyranoside (5 mM, Roche Diagnostics) was added per well and plates incubated at 37° C. for 34 hours. β-Galactosidase activity was indicated by a yellow to red colour change (absorbance at 570 nm) measured using a Tecan Spectrafluor Ultra.
The calculation of median inhibitory concentration (IC50) values for the inhibitors was performed using Origin 6.0 (Microcal Software, Northampton Mass. USA). Dose response curves for each inhibitor were plotted as OD units at each inhibitor concentration with relation to a maximum signal (cortisone, no compound) and IC50 values calculated. […]
(Reporter assays use an easily measured gene product as a stand-in for the process of interest.)
T1 sequence (P28845 whole entry): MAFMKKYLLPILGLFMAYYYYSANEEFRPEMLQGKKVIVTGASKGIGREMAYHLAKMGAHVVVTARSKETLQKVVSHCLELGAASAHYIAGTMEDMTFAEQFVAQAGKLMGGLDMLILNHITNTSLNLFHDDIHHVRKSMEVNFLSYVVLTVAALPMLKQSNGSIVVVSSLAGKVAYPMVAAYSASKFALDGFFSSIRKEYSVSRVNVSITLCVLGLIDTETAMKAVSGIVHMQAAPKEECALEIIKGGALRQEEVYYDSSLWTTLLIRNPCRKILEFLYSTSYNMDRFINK
One may read the IC50 as the concentration that gives 50% inhibition. The low end stands for higher potency, the high end for lower potency. Turning to `O=C(c1ccc(F)cc1)C1CCCN(C(=O)Cc2ccc(F)cc2)C1` (stereo not drawn) [Example 17], half-maximal inhibition (IC50) required 83 nM.

Turning to `O=C(c1ccc(F)cc1)C1CCCN(C(=O)c2ccc(Cl)s2)C1` (stereo not drawn) [Example 18], the IC50 amounted to 206 nM.

For `CC(C)S(=O)(=O)N1CCCC(C(=O)c2ccc(F)cc2)C1` (stereo not drawn) [Example 13], half-maximal inhibition (IC50) was put at 10 nM.

These data come from US20070112000A1, “Chemical compounds” (AstraZeneca R&D Alderley, priority 2003, published 2007).
